# Results as given in patent US20060069074A1, “Genetic predictor of efficacy of anti-asthmatic agents for improving pulmonary function” (priority 2004, published 2006).
# Legend:
# [1] = system: β2-adrenergic receptor (B2AR); conditions: cited from earlier work
# [2] = Baseline methacholine challenge (PC20) by B2AR diplotype; type: in vivo, human; conditions: for Methacholine PC20: geometric mean (95% CI), corrected for baseline percent predicted FEV1
# From the text: (§1) Briefly, 144 children ages 6 to 17 years with mild to moderate persistent asthma were enrolled. […] Children with severe asthma were excluded. Strunk R, et al., supra. Informed consent, approved by the Institutional Review Board of the subject's respective study institution, was obtained from a parent/guardian.
# [3] = Double-blind randomized crossover trial of montelukast and fluticasone propionate in children with asthma; FEV1 response by B2AR diplotype; type: in vivo, human; conditions: all children, 8-week treatment periods
# From the text: as §1
structure (smiles),measurement,setting,value
CC(C)(C)NCC(O)c1ccc(O)c(CO)c1 (stereo not shown) [albuterol],Immediate bronchial responses to albuterol,"[1]; carriers of the Arg16 allele vs carriers of the Gly16 allele, subjects naïve to B2AR-agonists",higher immediate responses
same,Bronchodilator response (improvement in FEV1) to albuterol,"[1]; diplotype 4/6, Drysdale et al.",highest response
same,Lung function on regularly scheduled albuterol,[1]; homozygotes for Arg16 compared with carriers of the other two genotypes,significant deterioration in lung function
CC(=O)OC(C)C[N+](C)(C)C (stereo not shown) [methacholine],Methacholine PC20,"[2]; 4/4 diplotype, n=18","0.6 (0.3, 1.1) mg/ml"
same,Methacholine PC20,"[2]; all other diplotypes, n=106","1.4 (1.1, 1.7) mg/ml"
same,"Dose of methacholine causing a 20% fall in FEV1, difference between groups","[2]; lower in the 4/4 diplotype than in the other diplotypes, adjusted for baseline percent predicted FEV1, p=0.015",1.3 doubling doses
"CCC(=O)O[C@]1(C(=O)SCF)[C@H](C)C[C@H]2[C@@H]3C[C@H](F)C4=CC(=O)C=C[C@]4(C)[C@@]3(F)[C@@H](O)C[C@@]21C [fluticasone, fluticasone propionate]",Fraction of children with FEV1 response to fluticasone but not to montelukast,[3],one-fourth
